In US12077555B2, “STAT degraders and uses thereof” (Kymera Therapeutics, Inc., priority 2019, dated 2024):
Like-named read-outs stand apart in the source and are kept apart here.

Target: STAT3 (Homo sapiens, UniProt P40763)
Test: STAT3 HiBiT degradation assay in transfected A549 cells
Type: cell-based
Design: expressed in transfected cells; host or cells: A549
Experimental: Compound preparation and Cell seeding: The transfected A549 cells were harvested from dish into cell culture medium and cell numbers counted. Cells were diluted with culture medium to the desired density and 30 μL of cell suspension (about 2000 cells/well) were added into each well of a 384-well cell culture plate as designated and transferred into 37° C. 5% CO2 incubator for 24 h. Compounds were dissolved to 10 mM stock solution and 12 μL of the stock solution was transferred to a 384 LDV-plate. 3 fold, 10-point dilution was performed by transferring 4 μL compound into 8 μL DMSO using a TECAN (EVO200) liquid handler. 30 μL of diluted compound from compound source plate was transferred into the cell plate as designated by using Echo550 and transferred into 37° C. 5% CO2 incubator for 24 h.
Detection: Plates were removed from incubators and equilibrated at room temperature for 15 minutes. Nano-Glo Hibit Lytic Detection reagent (Promega Cat #N3040) was thawed and equilibrated to room temperature before the experiment. 30 μL of Nano-Glo Hibit Lytic Detection reagent was added into each well to be detected. The plates were held at room temperature for 10 min followed by reading on EnSpire.
Data analysis: The remaining activity was calculated following the formula: Remaining Activity (%)=100%×(Lumsample−LumNC)/(LumPC−LumNC). Calculate the IC50 by fitting the curve using Xlfit (v5.3.1.3), equation 201: fit=(A+((B−A)/(1+((x/C)^D)))); A: Bottom; B: Top; C: IC50; and D: Slope.
The letter codes for STAT3 DC50 include: A (<0.01 μM), B (0.01-0.1 μM), C (0.1-1.0 μM), and D (>1.0 μM).

[1] = A549, 24 h; read-out: STAT3 HiBiT A549 degradation 24 h: Average external-Abs DC50

STAT3, sequence (P40763 whole entry): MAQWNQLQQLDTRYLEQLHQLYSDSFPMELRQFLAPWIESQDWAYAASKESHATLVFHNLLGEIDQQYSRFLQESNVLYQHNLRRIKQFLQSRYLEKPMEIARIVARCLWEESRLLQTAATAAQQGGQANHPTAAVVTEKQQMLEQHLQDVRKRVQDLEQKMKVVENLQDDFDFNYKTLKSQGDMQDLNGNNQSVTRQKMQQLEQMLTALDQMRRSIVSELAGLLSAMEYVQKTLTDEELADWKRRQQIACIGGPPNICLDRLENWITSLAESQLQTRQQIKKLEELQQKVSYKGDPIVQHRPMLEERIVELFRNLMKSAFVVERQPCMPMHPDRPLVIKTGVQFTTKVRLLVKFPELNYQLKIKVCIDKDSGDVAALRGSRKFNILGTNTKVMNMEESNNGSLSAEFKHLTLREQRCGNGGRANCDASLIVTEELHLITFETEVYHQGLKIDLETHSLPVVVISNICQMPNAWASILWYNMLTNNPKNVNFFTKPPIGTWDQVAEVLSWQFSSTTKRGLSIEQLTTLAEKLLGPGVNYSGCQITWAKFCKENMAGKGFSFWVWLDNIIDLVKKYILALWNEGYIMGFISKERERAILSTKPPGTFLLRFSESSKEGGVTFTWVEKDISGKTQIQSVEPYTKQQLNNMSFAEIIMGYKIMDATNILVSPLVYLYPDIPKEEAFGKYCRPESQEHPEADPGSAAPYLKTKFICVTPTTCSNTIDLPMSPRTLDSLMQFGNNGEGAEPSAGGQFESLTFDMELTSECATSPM

| Structure (SMILES) | DC50 [1] [nM] | DC50 (read-out: STAT3 HiBiT A549 degradation 24 h: Average external-Abs DC50; A549, 24 h) [nM] |
| --- | --- | --- |
| Cc1ncsc1-c1ccc([C@H](C)NC(=O)[C@@H]2C[C@@H](O)CN2C(=O)[C@@H](NC(=O)CCCCc2ccc(CO[C@H](C)[C@H](CCC(N)=O)NC(=O)[C@@H]3Cc4cccc5c4N3C(=O)[C@@H](NC(=O)c3cc4cc(C(=O)O)ccc4[nH]3)CC5)cc2)C(C)(C)C)cc1 [Compound I-131, Ammonium 2-[[(2S,11S)-2-[[(3S,4R)-1-carbamoyl-4-[[4-(4-[[(2S)-1-[(2S,4R)-4-hydroxy-2-[[(1S)-1-[4-(4-methyl-1,3-thiazol-5 yl)phenyl]ethyl]carbamoyl]pyrrolidin-1-yl]-3,3-dimethyl-1-oxobutan-2-yl]carbamoyl]butyl)phenyl]methoxy]pentan-3-yl]carbamoyl]-12-oxo-1-azatricyclo[6.4.1.0^[4,13]]trideca-4(13),5,7-trien-11-yl]carbamoyl]-1H-indole-5-carboxylate] | > 1000 | – |
| Cn1c(=O)n(C2CCC(=O)NC2=O)c2ccc(NCCCCCC(=O)N3CC[C@H]4CC[C@@H](C(=O)N[C@@H](CCC(N)=O)C(=O)NC(c5ccccc5)c5ccccc5)N4C(=O)[C@@H](NC(=O)c4cc5cc(C(=O)P(=O)(O)O)ccc5[nH]4)C3)cc21 (stereo partly drawn) [Compound I-132, 2-[[(5S,8S,10aR)-8-[[(1S)-3-carbamoyl-1-(diphenylmethylcarbamoyl)propyl]carbamoyl]-3-(6-[[1-(2,6-dioxopiperidin-3-yl)-3-methyl-2-oxo-1,3-benzodiazol-5-yl]amino]hexanoyl)-6-oxo-octahydropyrrolo[1,2-a][1,5]diazocin-5-yl]carbamoyl]-1H-indole-5-carbonylphosphonic acid] | 100 to 1000 | – |
| Cc1ncsc1-c1ccc(CNC(=O)[C@@H]2C[C@@H](O)CN2C(=O)[C@@H](NC(=O)CCCc2cccc3cc(CO[C@H](C)[C@H](CCC(N)=O)NC(=O)[C@@H]4Cc5cccc6c5N4C(=O)[C@@H](NC(=O)c4cc5cc(C(=O)P(=O)(O)O)ccc5[nH]4)CC6)ccc23)C(C)(C)C)cc1 [Compound I-133, diammonium 2-[[(2S,11S)-2-[[(3S,4R)-1-carbamoyl-4-[[5-(3-[[(2S)-1-[(2S,4R)-4-hydroxy-2-([[4-(4-methyl-1,3-thiazol-5-yl)phenyl]methyl]carbamoyl)pyrrolidin-1-yl]-3,3-dimethyl-1-oxobutan-2-yl]carbamoyl]propyl)naphthalen-2-yl]methoxy]pentan-3-yl]carbamoyl]-12-oxo-1-azatricyclo[6.4.1.0^[4,13]]trideca-4(13),5,7-trien-11-yl]carbamoyl]-1H-indole-5-carbonylphosphonate] | 100 to 1000 | – |
| Cn1c(=O)n(C2CCC(=O)NC2=O)c2cc(CCCCCCC(=O)N3CC[C@H]4CC[C@@H](C(=O)N[C@@H](CCC(N)=O)C(=O)NC(c5ccccc5)c5ccccc5)N4C(=O)[C@@H](NC(=O)c4cc5cc(C(=O)P(=O)(O)O)ccc5[nH]4)C3)ccc21 (stereo partly drawn) [Compound I-134, 2-[[(5S,8S,10aR)-8-[[(1S)-3-carbamoyl-1-(diphenylmethylcarbamoyl)propyl]carbamoyl]-3-[7-[3-(2,6-dioxopiperidin-3-yl)-1-methyl-2-oxo-1,3-benzodiazol-5-yl]heptanoyl]-6-oxo-octahydropyrrolo[1,2-a][1,5]diazocin-5-yl]carbamoyl]-1H-indole-5-carbonylphosphonic acid] | – | > 1000 |
| Cn1c(=O)n(C2CCC(=O)NC2=O)c2ccc(N3CC(CCCC(=O)N4CC[C@H]5CC[C@@H](C(=O)N[C@@H](CCC(N)=O)C(=O)NC(c6ccccc6)c6ccccc6)N5C(=O)[C@@H](NC(=O)c5cc6cc(C(=O)P(=O)(O)O)ccc6[nH]5)C4)C3)cc21 (stereo partly drawn) [Compound I-135, 2-[[(5S,8S,10aR)-8-[[(1S)-3-carbamoyl-1-(diphenylmethylcarbamoyl)propyl]carbamoyl]-3-(4-[1-[1-(2,6-dioxopiperidin-3-yl)-3-methyl-2-oxo-1,3-benzodiazol-5-yl]azetidin-3-yl]butanoyl)-6-oxo-octahydropyrrolo[1,2-a][1,5]diazocin-5-yl]carbamoyl]-1H-indole-5-carbonylphosphonic acid] | 100 to 1000 | – |
